From PubChem BioAssay (NCI)
Several values for one entry are separate records, joined by “and”; a condition that tells them apart may be missing. Identical values can stand only once.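 Test compounds were applied to cells in 96-well plates for 48 hours at 5 doses. Abbreviation: GI50, concentration required for 50% inhibition of growth. At the TGI there is no net growth.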 Activity calls are given as the source filed them. Cut-off read from the data, not from the text of the source: active = GI50 below about 0.43 µM; inactive = the rest.

Legend:
Assay in all cases: DTP human tumour cell line panel, 48 h
[1] = test system: SK-OV-3 ovarian
[2] = test system: SK-MEL-5 melanoma
[3] = test system: HCC-2998 colon
[4] = test system: LOX IMVI melanoma
[5] = test system: ACHN renal
[6] = test system: U251 CNS
[7] = test system: SK-MEL-28 melanoma
[8] = test system: KM20L2 colon
[9] = test system: A498 renal

| SMILES | TGI [1] | TGI [2] | TGI [3] | TGI [4] [µM] | TGI [5] | TGI [6] | TGI [7] | TGI [8] [µM] | GI50 [1] | GI50 [2] | GI50 [3] | GI50 [9] | TGI [9] | GI50 [5] | GI50 [6] | GI50 [7] | outcome [8] | GI50 [4] [µM] | GI50 [8] [µM] |
| --- | --- | --- | --- | --- | --- | --- | --- | --- | --- | --- | --- | --- | --- | --- | --- | --- | --- | --- | --- |
| COC1OC(OC)C2C(c3c(C)cc(C)cc3C)=NOC12 (configuration not stated) | > 100 µM | > 100 µM | > 100 µM | > 100 | > 100 µM | > 100 µM | > 100 µM | > 100 | – | – | – | – | – | – | – | – | – | – | – |
| O=C(Nc1ccc(Cl)cc1)NS(=O)(=O)c1ccc2c(c1)CCC2 | 86.1 µM and 41.9 µg/mL | > 74 µM and 40 µg/mL | > 77.6 µM and 36.8 µg/mL | > 79.9 | > 100 µM and 49.6 µg/mL | > 77.5 µM and 48.3 µg/mL | > 100 µM and 39.3 µg/mL | > 100 | 18 µg/mL | 20.6 µg/mL | 17.3 µg/mL | 19.1 µg/mL | > 100 µM and 38 µg/mL | 16.1 µg/mL | 22.5 µg/mL | 20.1 µg/mL | inactive | – | – |
| COc1ccc(C(=O)O/N=C2\CCCC\C2=C/c2ccccc2)cc1 | > 100 µM | > 100 µM | > 100 µM | > 100 | > 100 µM | > 100 µM | > 100 µM | > 100 | – | – | – | – | > 100 µM | – | – | – | – | – | – |
| COc1ccc(NC(=O)CC/C(CC(=O)c2ccco2)=N/Nc2ccc([N+](=O)[O-])cc2[N+](=O)[O-])cc1 | > 100 µM | > 100 µM | > 100 µM | > 100 | > 100 µM | > 100 µM | > 100 µM | > 100 | – | – | – | – | > 100 µM | – | – | – | – | – | – |
| COC(=O)C1=Cc2cc3c(cc2[C@H](c2ccc4c(c2)OCO4)C1C(=O)OC)OCO3 (some centres not stated) | > 100 µM | > 100 µM | > 100 µM | > 100 | > 100 µM | > 100 µM | > 100 µM | > 100 | – | – | – | – | 74 µM | – | – | – | – | – | – |
| CCCCN(CCCC)C(=Nc1ccccc1)N(CCCC)CCCC | 22.6 µM | – | 15.4 µM | 13.6 | 82 µM | 17.4 µM | 11.8 µM | 12.5 | – | – | – | – | 37.8 µM | – | – | – | – | – | – |
| O=C(Nc1nc2ncn(CCOC(=O)c3ccccc3)c2c(=O)[nH]1)c1ccccc1 | > 79.9 µM | > 100 µM | > 100 µM | > 100 | > 100 µM | > 64.8 µM | > 100 µM | 83.3 | – | – | – | – | > 100 µM | – | – | – | – | – | – |
| CC(C)NC(=O)OCc1nnn2c1C(OC(=O)NC(C)C)CC2 (configuration not stated) | > 100 µM | > 100 µM | > 100 µM | – | – | > 100 µM | > 100 µM | > 100 | – | – | – | – | – | – | – | – | – | – | – |
| CCOC(=O)C(C(=O)c1ccccc1-c1ccccc1C(=O)O)=P(c1ccccc1)(c1ccccc1)c1ccccc1 | – | 29.6 µM | 47.7 µM | 40.8 | > 100 µM | 36.8 µM | 33.3 µM | 59.5 | – | – | – | – | 88.8 µM | – | – | – | – | – | – |
| COc1c(O)c2ccccc2c2cc(O)ccc12 | 55 µM | 5.59 µM | 32.7 µM | 7.53 | 14.5 µM | 17.9 µM | 11.9 µM | 46.6 | – | – | – | – | 24.1 µM | – | – | – | – | – | – |
| COC(=O)C1=CC(=O)C(C(=O)Nc2ccc(OC)cc2)C(c2ccccc2)O1 (configuration not stated) | 53.5 µM | > 73.7 µM | > 78.7 µM | > 72.9 | > 71.9 µM | 51.2 µM | > 86.3 µM | > 100 | – | – | – | – | 68 µM | – | – | – | – | – | – |
| CCN(CC)CCN(C)CC(C)(C)C(=O)/C=C/c1ccccc1 | 26.6 µM | 27.3 µM | 27.7 µM | 24 | 26.5 µM | 22.1 µM | 30.3 µM | 23.1 | – | – | – | – | 17.3 µM | – | – | – | – | – | – |
| CC(C)c1ccc2c(c1)CCC1C(C)(C)[C@@H](O)CC[C@]21C (some centres not stated) | > 100 µM | 32.1 µM | 58.1 µM | 28.8 | > 100 µM | 52.2 µM | > 100 µM | 44.4 | – | – | – | – | – | – | – | – | – | – | – |
| CN(C)C1(C#N)CCC2(CC1)OCCO2 | > 100 µM | > 100 µM | > 100 µM | > 100 | > 100 µM | > 100 µM | > 100 µM | > 100 | – | – | – | – | > 100 µM | – | – | – | – | – | – |
| c1ccc([CH2][Sn]([CH2]c2ccccc2)([S]c2cccc3cccnc23)[S]c2cccc3cccnc23)cc1 | 3.15 µM | 1.18 µM | 0.334 µM | 0.442 | 0.985 µM | 1.14 µM | 0.864 µM | 1.14 | 1.76 µM | 0.299 µM | 0.139 µM | 0.288 µM | 0.95 µM | 0.302 µM | 0.341 µM | 0.201 µM | – | 0.215 | 0.365 |
| CC(=O)OCC1OC(n2cc(F)c(=O)[nH]c2=O)C(OC(C)=O)C1OC(C)=O (configuration not stated) | > 100 µM | > 100 µM | > 100 µM | > 63.9 | > 100 µM | > 95.5 µM | > 100 µM | > 100 | – | – | – | – | > 100 µM | – | – | – | – | – | – |
| N#Cc1c([N+](=O)[O-])cc(C(F)(F)F)cc1[N+](=O)[O-] | 33.2 µM | 23.8 µM | – | 6.87 | 20 µM | 33.7 µM | 21.2 µM | 44.2 | – | – | – | – | 32.9 µM | – | – | – | – | – | – |
| [O-][n+]1onc2c3nn(-c4ccccc4)nc3ccc21 | > 100 µM | > 100 µM | 44.9 µM | > 58.3 | > 100 µM | > 100 µM | > 100 µM | – | – | – | – | – | > 100 µM | – | – | – | – | – | – |
| Nc1nc2nc3c(nc2c(=O)[nH]1)CN(c1ccc(C(=O)O)cc1)C3=O | > 100 µM | > 100 µM | > 100 µM | > 100 | > 100 µM | > 100 µM | > 100 µM | – | – | – | – | – | > 100 µM | – | – | – | – | – | – |
| O=C1CCC/C=C\C[C@H]2C=C(Cl)C(=O)/C2=C/C[C@H](CCCCC(F)(F)F)OC(=O)CCC/C=C\C[C@H]2C=C(Cl)C(=O)/C2=C/C[C@H](CCCCC(F)(F)F)O1 | 5.17 µM | 1.37 µM | 0.64 µM | 0.268 | 1.02 µM | 0.772 µM | 0.419 µM | – | 1.72 µM | 0.412 µM | 0.215 µM | 0.965 µM | 2.12 µM | 0.262 µM | 0.226 µM | 0.166 µM | – | 0.128 | – |
| O=C(c1ccccc1)c1nnn(Cc2cccc(Cl)c2)c1C(=O)c1ccccc1 | > 100 µM | > 100 µM | > 100 µM | > 100 | > 100 µM | > 100 µM | > 100 µM | > 100 | – | – | – | – | – | – | – | – | – | – | – |
